Assay results published in patent US10196373B2, “Substituted 2-hydroxy-4-(2-(phenylsulfonamido)acetamido)benzoic acid analogs as inhibitors of STAT protein” (University of Central Florida Research Foundation, Inc., priority 2010, dated 2019).

Columns and labels:
Assay type in all cases: cell-based
DU-145 cells = experiment: Cell viability, MTS assay; settings: Homo sapiens, DU-145, 72 hours
Protocol: (§1) To further test activity of these molecules, a whole-cell study involving cancer lines with known abherrant STAT3 expression was conducted. These human cell lines, including prostate cancer (DU145), breast cancer (MDA468), and promyelocytic leukemia (HL-60) were treated with the peptidomimetics and incubated for 72 hours. Disruption of cell viability was measured by MTS assay and IC50 values for the potential inhibitors was determined. OriginPro 8 (Northampton, Mass.) was used to evaluate EC50 using the dose response curve defined as follows:
(§2) [formula] where y is the fraction of death, x is the log of drug concentration. A2 is the top asymptote, A1 is the bottom asymptote, logx0 is the center of the curve, and p is the hill slope.

HL60 cells = experiment: Cell viability, MTS assay; settings: Homo sapiens, HL-60, HL60, 72 hours
Protocol: as §1, §2

MDA-468 cells = experiment: Cell viability, MTS assay; settings: Homo sapiens, MDA-468, 72 hours
Protocol: as §1, §2

OCI-AMI.2 cells = experiment: Cell viability, MTS assay
K562 cells = experiment: Cell viability in cell lines with constitutive activation of STAT5 (Almar Blue); settings: Homo sapiens
Protocol: (§3) To determine whether STAT5 inhbitors could be cytotoxic in cell lines that have constitutive activation of STAT5, the cell lines K562 and MV-4-11 were cultured at concentration 1×10^5, to insure that the cells are at the exponential stage of growth, and treated with the different synthesized molecules at concentrations of 10, 20 and 40 μM. Viability were determined using Almar Blue (Invitrogen) in 96-well plate over 3 consecutive days. Fluorescence was quantified using Spectra Max M5 (Molecular Devices).

MV-4-11 cells = experiment: as above; settings: Homo sapiens, MV4-11
Protocol: as §3

Compound	IC50 (DU-145 cells) [µM]	IC50 (HL60 cells) [µM]	IC50 (MDA-468 cells) [µM]	IC50 (OCI-AMI.2 cells) [µM]	IC50 (K562 cells) [µM]	IC50 (MV-4-11 cells) [µM]
COC(=O)c1cccc(-c2ccc(-c3ccc(CN(C(=O)CN(C)S(=O)(=O)c4ccc(C)cc4)c4ccc(C(=O)O)c(O)c4)cc3)cc2)c1 [Compound 27na]	81.5 ± 8	33.2 ± 9.2	29 ± 2.3	35.1 ± 19.4	24 ± 3	24 ± 2
CN(CC(=O)N(Cc1ccc(C2CCCCC2)cc1)c1ccc(C(=O)O)c(O)c1)S(=O)(=O)c1ccc(-c2ccccc2)cc1 [Compound 45c, 4-(N-(4-cyclohexylbenzyl)-2-(N-methylbiphenyl-4-ylsulfonamido)acetamido)-2-hydroxy-benzoic acid]	80 ± 31.6	74.8 ± 28.2	47.4 ± 6.2	95.4 ± 33.7	42 ± 16	17 ± 1
